Molecules are shown by their SMILES.

Holding throughout (type): biochemical
In one assay the target is T1, Aurora-A (Homo sapiens, UniProt O14965).
T1 construct: host or cells: Sf9 insect cells (baculovirus)
T1 sequence (O14965 1-403): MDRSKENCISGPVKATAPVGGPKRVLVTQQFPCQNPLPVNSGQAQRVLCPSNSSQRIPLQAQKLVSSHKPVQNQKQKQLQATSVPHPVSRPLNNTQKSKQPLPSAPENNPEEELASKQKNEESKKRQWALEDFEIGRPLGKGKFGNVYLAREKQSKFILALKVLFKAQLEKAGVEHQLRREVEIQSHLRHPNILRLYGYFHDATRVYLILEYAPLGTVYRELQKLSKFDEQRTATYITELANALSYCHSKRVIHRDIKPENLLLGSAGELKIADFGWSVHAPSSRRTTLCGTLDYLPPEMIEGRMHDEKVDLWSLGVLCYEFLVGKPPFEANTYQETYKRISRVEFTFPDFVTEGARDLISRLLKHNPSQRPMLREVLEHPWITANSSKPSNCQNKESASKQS
The experiment in a line: Radiometric protein kinase assay, Aurora-A. To be noted: 1 μM ATP; read-out: Inhibitory activity (IC50:μM) Aurora-A. The source says: (§1) All protein kinases were expressed in Sf9 insect cells as human recombinant GST-fusion proteins or His-tagged proteins by means of the baculovirus expression system. Kinases were purified by affinity chromatography using either GSH-agarose (Sigma) or Ni-NTH-agarose (Qiagen). The purity of each kinase was checked by SDS-PAGE/silver staining and the identity of each kinase was verified by western blot analysis with kinase specific antibodies or by mass spectroscopy.
(§2) A radiometric protein kinase assay (^33PanQinase® Activity Assay) was used for measuring the kinase activity of the 24 protein kinases. All kinase assays were performed in 96-well FlashPlates™ from Perkin Elmer (Boston, Mass., USA) in a 50 μl reaction volume. The reaction cocktail was pipetted in 4 steps in the following order: • 20 μl of assay buffer • 5 μl of ATP solution (in H2O) • 5 μl of test compound (in 10% DMSO) • 10 μl of substrate/10 […] of enzyme solution (premixed)
(§3) The assay for all enzymes contained 60 mM HEPES-NaOH, pH 7.5, 3 mM MgCl2, 3 mM MnCl2, 3 μM Na-orthovanadate, 1.2 mM DTT, 50 μg/ml PEG20000, 1 μM [γ-^33P]-ATP (approx. 5×10^05 cpm per well).
(§4) For the 24 kinase assays, the following amounts of enzyme and substrate were used per well:
(§5) The reaction cocktails were incubated at 30° C. for 80 minutes. The reaction was stopped with 50 μl of 2% (v/v) H3PO4, plates were aspirated and washed two times with 200 μl of 0.9% (w/v) NaCl or 200 μl H2O. Incorporation of ^33Pi was determined with a microplate scintillation counter (Microbeta Trilux, Wallac).
(§6) The median value of the counts in column 1 (n=8) of each assay plate was defined as “low control”. This value reflects unspecific binding of radioactivity to the plate in the absence of a protein kinase but in the presence of the substrate. The median value of the counts in column 7 of each assay plate (n=8) was taken as the “high control”, i.e. full activity in the absence of any inhibitor. The difference between high and low control was taken as 100% activity.
(§7) As part of the data evaluation the low control value from a particular plate was subtracted from the high control value as well as from all 80 “compound values” of the corresponding plate. The residual activity (in %) for each well of a particular plate was calculated by using the following formula: Res. Activity (%)=100×[(cpm of compound−low control)/(high control−low control)]
(§8) The residual activities for each concentration and the compound IC50 values were calculated using Quattro Workflow V2.1.0.0 (Quattro Research GmbH, Munich, Germany; www.quattro-research.com). The model used was “Sigmoidal response (variable slope)” with parameters “top” fixed at 100% and “bottom” at 0%.

A further assay deals with T2, FAK (Homo sapiens, UniProt Q05397).
T2 construct: host or cells: Sf9 insect cells (baculovirus)
T2 sequence (Q05397 whole entry): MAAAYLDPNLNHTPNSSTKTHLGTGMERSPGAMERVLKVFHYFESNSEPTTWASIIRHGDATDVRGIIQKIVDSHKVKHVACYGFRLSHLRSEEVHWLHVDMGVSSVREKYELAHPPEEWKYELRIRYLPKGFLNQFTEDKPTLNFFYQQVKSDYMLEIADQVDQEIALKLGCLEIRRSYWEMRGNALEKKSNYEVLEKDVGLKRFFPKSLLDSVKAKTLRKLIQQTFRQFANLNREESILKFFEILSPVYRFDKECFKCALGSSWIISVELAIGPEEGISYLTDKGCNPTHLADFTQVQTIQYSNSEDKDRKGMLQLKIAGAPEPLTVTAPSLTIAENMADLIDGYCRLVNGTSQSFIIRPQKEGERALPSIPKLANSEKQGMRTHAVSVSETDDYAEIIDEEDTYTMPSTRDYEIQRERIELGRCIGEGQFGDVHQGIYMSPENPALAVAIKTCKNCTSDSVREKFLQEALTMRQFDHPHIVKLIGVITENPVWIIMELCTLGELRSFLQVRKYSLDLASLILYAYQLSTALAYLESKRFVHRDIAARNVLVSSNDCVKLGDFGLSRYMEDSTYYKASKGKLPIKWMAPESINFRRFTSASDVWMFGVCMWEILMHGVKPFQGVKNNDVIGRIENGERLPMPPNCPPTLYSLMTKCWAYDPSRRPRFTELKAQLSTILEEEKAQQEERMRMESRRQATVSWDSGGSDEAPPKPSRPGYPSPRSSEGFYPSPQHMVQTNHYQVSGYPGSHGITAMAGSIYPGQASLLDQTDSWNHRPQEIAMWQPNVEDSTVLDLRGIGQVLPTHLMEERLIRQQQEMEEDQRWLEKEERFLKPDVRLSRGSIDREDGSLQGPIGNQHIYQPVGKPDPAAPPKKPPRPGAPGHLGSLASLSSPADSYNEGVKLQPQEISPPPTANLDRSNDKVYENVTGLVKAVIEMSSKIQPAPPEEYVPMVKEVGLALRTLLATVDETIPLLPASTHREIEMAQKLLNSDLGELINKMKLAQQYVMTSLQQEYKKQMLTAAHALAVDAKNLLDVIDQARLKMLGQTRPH
The experiment in a line: Radiometric protein kinase assay, FAK. To be noted: 1 μM ATP; read-out: Inhibitory activity (IC50:μM) FAK.
Description: as §1, §2, §3, §4, §5, §6, §7, §8

Another assay concerns the target T3, SAK (Homo sapiens, UniProt O00444).
T3 construct: host or cells: Sf9 insect cells (baculovirus)
T3 sequence (O00444 1-970): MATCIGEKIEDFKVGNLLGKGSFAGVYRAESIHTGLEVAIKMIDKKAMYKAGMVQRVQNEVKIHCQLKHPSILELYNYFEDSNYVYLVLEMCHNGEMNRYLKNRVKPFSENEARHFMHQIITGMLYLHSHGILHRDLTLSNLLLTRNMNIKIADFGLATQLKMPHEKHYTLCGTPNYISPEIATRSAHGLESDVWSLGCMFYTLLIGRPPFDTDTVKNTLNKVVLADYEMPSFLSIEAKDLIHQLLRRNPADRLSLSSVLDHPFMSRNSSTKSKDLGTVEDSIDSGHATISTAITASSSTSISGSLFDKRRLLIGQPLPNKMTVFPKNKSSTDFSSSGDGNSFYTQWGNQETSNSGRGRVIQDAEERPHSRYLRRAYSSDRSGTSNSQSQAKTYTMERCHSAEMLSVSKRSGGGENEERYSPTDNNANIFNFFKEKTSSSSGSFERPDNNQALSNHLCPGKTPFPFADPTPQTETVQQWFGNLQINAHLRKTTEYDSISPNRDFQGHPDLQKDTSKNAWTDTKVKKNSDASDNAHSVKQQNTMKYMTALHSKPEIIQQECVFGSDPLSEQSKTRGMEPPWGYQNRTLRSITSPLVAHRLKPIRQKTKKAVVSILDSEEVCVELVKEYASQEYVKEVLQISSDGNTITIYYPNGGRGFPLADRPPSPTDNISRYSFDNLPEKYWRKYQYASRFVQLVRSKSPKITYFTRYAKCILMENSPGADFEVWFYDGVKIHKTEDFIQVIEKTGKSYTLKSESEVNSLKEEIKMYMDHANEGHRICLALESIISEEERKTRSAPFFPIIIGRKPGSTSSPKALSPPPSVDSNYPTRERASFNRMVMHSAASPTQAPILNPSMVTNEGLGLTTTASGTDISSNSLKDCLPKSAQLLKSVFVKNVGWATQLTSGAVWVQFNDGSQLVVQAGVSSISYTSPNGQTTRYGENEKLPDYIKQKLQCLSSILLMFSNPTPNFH
The experiment in a line: Radiometric protein kinase assay, SAK. To be noted: 1 μM ATP; read-out: Inhibitory activity (IC50:μM) SAK.
Description: as §1, §2, §3, §4, §5, §6, §7, §8

The IC50 is the concentration that gives 50% inhibition. In the case of `O=C1/C=C/CCC2OC2C[C@H](c2ccccc2)OC(=O)c2c(O)cc(O)c(Cl)c2C1` (stereo partly shown) [A-5], the IC50 on Aurora-A is 47 µM; on FAK it was 38 µM; on SAK, 20 µM.

Turning to `O=C1Cc2c(Cl)c(O)cc(O)c2C(=O)O[C@H](c2ccccc2)C/C=C/CCC(Cl)C1` (stereo partly shown) [A-3], the half-inhibitory concentration (IC50) on FAK was 9 µM; on SAK it was 25 µM.

With `O=C1/C=C/CCC2OC2C[C@@H](Cc2ccccc2)OC(=O)c2c(O)cc(O)cc2C1` (stereo partly shown) [A-6], the IC50 on FAK stood at 34 µM; at SAK, 17 µM.

Consider `CC(C)[C@@H]1CC2OC2CC/C=C/C(=O)Cc2c(Cl)c(O)cc(O)c2C(=O)O1` (stereo partly shown) [A-4], for which the results for the half-inhibitory concentration (IC50) at Aurora-A, on FAK and on SAK were 30 µM, 37 µM and 19 µM, respectively.

Consider `COC1CC/C=C/C[C@H](c2ccccc2)OC(=O)c2c(O)cc(O)c(Cl)c2CC(=O)C1` (stereo partly shown) [A-2], for which the results for the IC50 at Aurora-A, on FAK and on SAK were 14 µM, 14 µM and 17 µM, respectively.

For the origin of these results see patent US8450305B2, “Macrocyclic compounds useful as inhibitors of kinases and HSP90” (Universite de Strasbourg, priority 2006, dated 2013).
